Molecular target: T1, PI3Kδ (Homo sapiens, UniProt O00329)
T1 construct: Full length p110 subunits of PI3k α, β and δ, N-terminally labeled with polyHis tag; polyHis (N); made in house; host or cells: Sf9 insect cells (baculovirus)
Assay: PI3Kδ Alphascreen assay
Type: biochemical

T1 sequence (O00329 whole entry): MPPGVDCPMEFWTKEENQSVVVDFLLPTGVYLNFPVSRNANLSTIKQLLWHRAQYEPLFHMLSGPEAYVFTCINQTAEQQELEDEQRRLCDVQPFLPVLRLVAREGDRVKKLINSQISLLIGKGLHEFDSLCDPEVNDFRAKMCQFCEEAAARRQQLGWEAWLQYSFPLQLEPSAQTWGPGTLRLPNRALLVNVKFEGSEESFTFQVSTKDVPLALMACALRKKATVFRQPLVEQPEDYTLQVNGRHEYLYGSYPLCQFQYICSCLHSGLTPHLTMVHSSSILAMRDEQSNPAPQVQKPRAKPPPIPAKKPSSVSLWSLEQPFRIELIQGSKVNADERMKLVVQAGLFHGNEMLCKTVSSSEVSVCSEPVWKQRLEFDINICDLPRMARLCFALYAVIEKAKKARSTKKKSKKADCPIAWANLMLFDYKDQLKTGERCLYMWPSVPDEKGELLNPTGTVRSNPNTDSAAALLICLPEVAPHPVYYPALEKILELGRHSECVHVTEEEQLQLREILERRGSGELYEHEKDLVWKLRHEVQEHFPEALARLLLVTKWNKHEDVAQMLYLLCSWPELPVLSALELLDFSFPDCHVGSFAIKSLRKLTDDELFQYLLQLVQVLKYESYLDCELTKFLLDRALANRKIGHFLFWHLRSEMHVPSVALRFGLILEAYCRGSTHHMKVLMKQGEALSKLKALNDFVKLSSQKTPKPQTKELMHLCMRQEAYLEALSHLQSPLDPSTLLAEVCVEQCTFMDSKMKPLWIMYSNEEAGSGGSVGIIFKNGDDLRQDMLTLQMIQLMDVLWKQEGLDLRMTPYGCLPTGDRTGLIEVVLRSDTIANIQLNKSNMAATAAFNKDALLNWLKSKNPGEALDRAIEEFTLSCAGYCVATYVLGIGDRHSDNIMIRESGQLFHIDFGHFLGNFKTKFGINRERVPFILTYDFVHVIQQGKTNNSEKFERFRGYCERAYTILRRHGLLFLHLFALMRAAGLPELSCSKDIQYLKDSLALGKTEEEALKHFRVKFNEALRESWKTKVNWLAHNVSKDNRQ
T1 sequence (P27986 whole entry partner): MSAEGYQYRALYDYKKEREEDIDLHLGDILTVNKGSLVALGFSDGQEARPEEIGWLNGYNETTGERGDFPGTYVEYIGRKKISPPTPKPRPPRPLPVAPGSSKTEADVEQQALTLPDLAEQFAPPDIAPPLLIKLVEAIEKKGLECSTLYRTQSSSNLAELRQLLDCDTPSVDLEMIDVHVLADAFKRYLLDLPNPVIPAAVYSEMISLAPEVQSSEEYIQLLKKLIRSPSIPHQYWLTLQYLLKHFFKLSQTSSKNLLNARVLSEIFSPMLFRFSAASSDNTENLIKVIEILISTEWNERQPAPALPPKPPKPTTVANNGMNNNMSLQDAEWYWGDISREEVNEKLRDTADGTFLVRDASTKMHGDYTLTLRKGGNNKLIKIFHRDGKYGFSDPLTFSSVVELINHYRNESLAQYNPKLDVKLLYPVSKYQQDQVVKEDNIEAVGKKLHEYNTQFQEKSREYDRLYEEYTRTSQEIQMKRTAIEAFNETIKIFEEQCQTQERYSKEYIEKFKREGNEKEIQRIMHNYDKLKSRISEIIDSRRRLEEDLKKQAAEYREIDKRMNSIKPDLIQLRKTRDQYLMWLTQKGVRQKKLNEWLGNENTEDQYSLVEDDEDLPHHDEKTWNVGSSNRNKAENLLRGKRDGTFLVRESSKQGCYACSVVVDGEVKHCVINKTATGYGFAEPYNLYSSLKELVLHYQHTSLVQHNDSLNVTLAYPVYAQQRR

Row | Ki | Compound
1 | 4.18 nM | Cc1c(-c2cc(OC(F)(F)F)ccc2S(C)(=O)=O)nc2cc(F)cc(F)c2c1Nc1cncc(N2CCOCC2)c1 [5,7-difluoro-3-methyl-2-(2-(methylsulfonyl)-5-(trifluoromethoxy)phenyl)-N-(5-(4-morpholinyl)-3-pyridinyl)-4-quinolinamine]
2 | 3.24 nM | Cc1c(-c2ccccc2S(C)(=O)=O)nc2cc(F)cc(F)c2c1Nc1cncc(N2CCOCC2)c1 [5,7-difluoro-3-methyl-2-(2-(methylsulfonyl)phenyl)-N-(5-(4-morpholinyl)-3-pyridinyl)-4-quinolinamine]
3 | 209 nM | Cc1c(-c2ccccn2)nc2cc(F)cc(F)c2c1Nc1cncc(C2CCOCC2)c1 [5,7-difluoro-3-methyl-2-(2-pyridinyl)-N-(5-(tetrahydro-2H-pyran-4-yl)-3-pyridinyl)-4-quinolinamine]
4 | 11.3 nM | Cc1c(N2CCN(C(C)C)CC2)nc2cc(F)cc(F)c2c1Nc1cncc(N2CCOCC2)c1 [5,7-difluoro-3-methyl-2-(4-(1-methylethyl)-1-piperazinyl)-N-(5-(4-morpholinyl)-3-pyridinyl)-4-quinolinamine]
5 | 33.3 nM | Cc1c(N2CCN(C(=O)C(C)C)CC2)nc2cc(F)cc(F)c2c1Nc1cncc(N2CCOCC2)c1 [5,7-difluoro-3-methyl-2-(4-(2-methylpropanoyl)-1-piperazinyl)-N-(5-(4-morpholinyl)-3-pyridinyl)-4-quinolinamine]
6 | 53.4 nM | Cc1c(N2CCN(S(=O)(=O)C(C)C)CC2)nc2cc(F)cc(F)c2c1Nc1cncc(N2CCOCC2)c1 [5,7-difluoro-3-methyl-2-(4-((1-methylethyl)sulfonyl)-1-piperazinyl)-N-(5-(4-morpholinyl)-3-pyridinyl)-4-quinolinamine]
7 | 71.3 nM | Cc1c(N2CCN(S(=O)(=O)CC(C)C)CC2)nc2cc(F)cc(F)c2c1Nc1cncc(N2CCOCC2)c1 [5,7-difluoro-3-methyl-2-(4-((2-methylpropyl)sulfonyl)-1-piperazinyl)-N-(5-(4-morpholinyl)-3-pyridinyl)-4-quinolinamine]
8 | 78.2 nM | Cc1ccc(C(=O)N2CCN(c3nc4cc(F)cc(F)c4c(Nc4cncc(N5CCOCC5)c4)c3C)CC2)o1 [5,7-difluoro-3-methyl-2-(4-((5-methyl-2-furanyl)carbonyl)-1-piperazinyl)-N-(5-(4-morpholinyl)-3-pyridinyl)-4-quinolinamine]
9 | 180 nM | Cc1ccc(C(=O)N2CCN(c3nc4cc(F)cc(F)c4c(Nc4cncc(N5CCOCC5)c4)c3C)CC2)cn1 [5,7-difluoro-3-methyl-2-(4-((6-methyl-3-pyridinyl)carbonyl)-1-piperazinyl)-N-(5-(4-morpholinyl)-3-pyridinyl)-4-quinolinamine]
10 | 45.5 nM | Cc1c(N2CCN(S(C)(=O)=O)CC2)nc2cc(F)cc(F)c2c1Nc1cncc(N2CCOCC2)c1 [5,7-difluoro-3-methyl-2-(4-(methylsulfonyl)-1-piperazinyl)-N-(5-(4-morpholinyl)-3-pyridinyl)-4-quinolinamine]
11 | 35.2 nM | Cc1c(N2CCN(C)CC2)nc2cc(F)cc(F)c2c1Nc1cncc(N2CCOCC2)c1 [5,7-difluoro-3-methyl-2-(4-methyl-1-piperazinyl)-N-(5-(4-morpholinyl)-3-pyridinyl)-4-quinolinamine]
12 | 0.821 nM | Cc1ccnc(-c2nc3cc(F)cc(F)c3c(Nc3cc(N4CCOCC4)ccc3S(C)(=O)=O)c2C)c1 [5,7-difluoro-3-methyl-2-(4-methyl-2-pyridinyl)-N-(2-(methylsulfonyl)-5-(4-morpholinyl)phenyl)-4-quinolinamine]
13 | 19.2 nM | Cc1ccnc(-c2nc3cc(F)cc(F)c3c(Nc3cncc(N4CCOCC4)c3)c2C)c1 [5,7-difluoro-3-methyl-2-(4-methyl-2-pyridinyl)-N-(5-(4-morpholinyl)-3-pyridinyl)-4-quinolinamine]
14 | 55.7 nM | Cc1c(N2CCOCC2)nc2cc(F)cc(F)c2c1Nc1cncc(N2CCOCC2)c1 [5,7-difluoro-3-methyl-2-(4-morpholinyl)-N-(5-(4-morpholinyl)-3-pyridinyl)-4-quinolinamine]
15 | 1.35 nM | Cc1ccc(S(C)(=O)=O)c(-c2nc3cc(F)cc(F)c3c(Nc3cncc(N4CCOCC4)c3)c2C)c1 [5,7-difluoro-3-methyl-2-(5-methyl-2-(methylsulfonyl)phenyl)-N-(5-(4-morpholinyl)-3-pyridinyl)-4-quinolinamine]
16 | 19.1 nM | Cc1ccc(-c2nc3cc(F)cc(F)c3c(Nc3cncc(N4CCOCC4)c3)c2C)nc1 [5,7-difluoro-3-methyl-2-(5-methyl-2-pyridinyl)-N-(5-(4-morpholinyl)-3-pyridinyl)-4-quinolinamine]
17 | 19.1 nM | Cc1ccc(-c2nc3cc(F)cc(F)c3c(Nc3cncc(N4CCOCC4)c3)c2C)cn1 [5,7-difluoro-3-methyl-2-(6-methyl-3-pyridinyl)-N-(5-(4-morpholinyl)-3-pyridinyl)-4-quinolinamine]
18 | 15.9 nM | Cc1c(N2CCNC[C@H]2C)nc2cc(F)cc(F)c2c1Nc1cncc(N2CCOCC2)c1 [5,7-difluoro-3-methyl-2-((2R)-2-methyl-1-piperazinyl)-N-(5-(4-morpholinyl)-3-pyridinyl)-4-quinolinamine]

Row | Ki | Compound
19 | 78.1 nM | Cc1c(N2CCNC[C@@H]2C)nc2cc(F)cc(F)c2c1Nc1cncc(N2CCOCC2)c1 [5,7-difluoro-3-methyl-2-((2S)-2-methyl-1-piperazinyl)-N-(5-(4-morpholinyl)-3-pyridinyl)-4-quinolinamine]
20 | 44.3 nM | Cc1c(N2CCN[C@H](C)C2)nc2cc(F)cc(F)c2c1Nc1cncc(N2CCOCC2)c1 [5,7-difluoro-3-methyl-2-((3R)-3-methyl-1-piperazinyl)-N-(5-(4-morpholinyl)-3-pyridinyl)-4-quinolinamine]
21 | 244 nM | Cc1c(N2CCN(S(C)(=O)=O)[C@H](C)C2)nc2cc(F)cc(F)c2c1Nc1cncc(N2CCOCC2)c1 [5,7-difluoro-3-methyl-2-((3R)-3-methyl-4-(methylsulfonyl)-1-piperazinyl)-N-(5-(4-morpholinyl)-3-pyridinyl)-4-quinolinamine]
22 | 20.6 nM | Cc1c(N2CCN[C@@H](C)C2)nc2cc(F)cc(F)c2c1Nc1cncc(N2CCOCC2)c1 [5,7-difluoro-3-methyl-2-((3S)-3-methyl-1-piperazinyl)-N-(5-(4-morpholinyl)-3-pyridinyl)-4-quinolinamine]
23 | 51.9 nM | Cc1c(-c2ccccn2)nc2cc(F)cc(F)c2c1Oc1cncc(N2CCOCC2)c1 [5,7-difluoro-3-methyl-4-((5-(4-morpholinyl)-3-pyridinyl)oxy)-2-(2-pyridinyl)quinoline]
24 | 2.15 nM | Cc1c(-c2ccccn2)nc2cc(F)cc(F)c2c1Nc1cc(N2CCOCC2)cnc1-c1ccc(S(C)(=O)=O)cc1 [5,7-difluoro-3-methyl-N-(2-(4-(methylsulfonyl)phenyl)-5-(4-morpholinyl)-3-pyridinyl)-2-(2-pyridinyl)-4-quinolinamine]
25 | 0.827 nM | Cc1c(-c2ccccc2S(C)(=O)=O)nc2cc(F)cc(F)c2c1Nc1cc(N2CCOCC2)ccc1S(C)(=O)=O [5,7-difluoro-3-methyl-N-(2-(methylsulfonyl)-5-(4-morpholinyl)-phenyl)-2-(2-(methylsulfonyl)phenyl)-4-quinolinamine]
26 | 87.1 nM | Cc1c(N2CCNCC2)nc2cc(F)cc(F)c2c1Nc1cncc(N2CCOCC2)c1 [5,7-difluoro-3-methyl-N-(5-(4-morpholinyl)-3-pyridinyl)-2-(1-piperazinyl)-4-quinolinamine]
27 | 315 nM | Cc1c(-c2ccnc(N3CCCC3)c2)nc2cc(F)cc(F)c2c1Nc1cncc(N2CCOCC2)c1 [5,7-difluoro-3-methyl-N-(5-(4-morpholinyl)-3-pyridinyl)-2-(2-(1-pyrrolidinyl)-4-pyridinyl)-4-quinolinamine]
28 | 14.5 nM | Cc1c(N2CCN(C(=O)c3cocn3)CC2)nc2cc(F)cc(F)c2c1Nc1cncc(N2CCOCC2)c1 [5,7-difluoro-3-methyl-N-(5-(4-morpholinyl)-3-pyridinyl)-2-(4-(1,3-oxazol-4-ylcarbonyl)-1-piperazinyl)-4-quinolinamine]
29 | 48 nM | Cc1c(N2CCN(C(=O)c3cnco3)CC2)nc2cc(F)cc(F)c2c1Nc1cncc(N2CCOCC2)c1 [5,7-difluoro-3-methyl-N-(5-(4-morpholinyl)-3-pyridinyl)-2-(4-(1,3-oxazol-5-ylcarbonyl)-1-piperazinyl)-4-quinolinamine]
30 | 40.7 nM | Cc1c(N2CCN(CC(F)(F)F)CC2)nc2cc(F)cc(F)c2c1Nc1cncc(N2CCOCC2)c1 [5,7-difluoro-3-methyl-N-(5-(4-morpholinyl)-3-pyridinyl)-2-(4-(2,2,2-trifluoroethyl)-1-piperazinyl)-4-quinolinamine]
31 | 645 nM | Cc1c(N2CCN(C(=O)c3ncccn3)CC2)nc2cc(F)cc(F)c2c1Nc1cncc(N2CCOCC2)c1 [5,7-difluoro-3-methyl-N-(5-(4-morpholinyl)-3-pyridinyl)-2-(4-(2-pyrimidinylcarbonyl)-1-piperazinyl)-4-quinolinamine]
32 | 11.8 nM | Cc1c(N2CCN(c3cccnc3)CC2)nc2cc(F)cc(F)c2c1Nc1cncc(N2CCOCC2)c1 [5,7-difluoro-3-methyl-N-(5-(4-morpholinyl)-3-pyridinyl)-2-(4-(3-pyridinyl)-1-piperazinyl)-4-quinolinamine]
33 | 343 nM | Cc1c(N2CCN(C(=O)c3cccnc3)CC2)nc2cc(F)cc(F)c2c1Nc1cncc(N2CCOCC2)c1 [5,7-difluoro-3-methyl-N-(5-(4-morpholinyl)-3-pyridinyl)-2-(4-(3-pyridinylcarbonyl)-1-piperazinyl)-4-quinolinamine]
34 | 67.5 nM | Cc1c(N2CCN(S(=O)(=O)c3cccnc3)CC2)nc2cc(F)cc(F)c2c1Nc1cncc(N2CCOCC2)c1 [5,7-difluoro-3-methyl-N-(5-(4-morpholinyl)-3-pyridinyl)-2-(4-(3-pyridinylsulfonyl)-1-piperazinyl)-4-quinolinamine]
35 | 99.1 nM | Cc1c(N2CCN(C(=O)c3ccncn3)CC2)nc2cc(F)cc(F)c2c1Nc1cncc(N2CCOCC2)c1 [5,7-difluoro-3-methyl-N-(5-(4-morpholinyl)-3-pyridinyl)-2-(4-(4-pyrimidinylcarbonyl)-1-piperazinyl)-4-quinolinamine]
36 | 87.9 nM | Cc1c(N2CCN(C(=O)c3ccccc3)CC2)nc2cc(F)cc(F)c2c1Nc1cncc(N2CCOCC2)c1 [5,7-difluoro-3-methyl-N-(5-(4-morpholinyl)-3-pyridinyl)-2-(4-(phenylcarbonyl)-1-piperazinyl)-4-quinolinamine]

— patent US8940724B2, “Quinoline derivitives and their uses” (Amgen Inc., priority 2009, dated 2015)
